Data: US20230085307A1, “PYRIDAZINONE COMPOUND AND HERBICIDE” (NISSAN CHEMICAL CORPORATION, priority 2019, published 2023)

Legend:
persian speedwell [1] = assay: Test Example 4: herbicidal effect by soil treatment (Table 19, symbol R); format: in vivo, Persian speedwell (Veronica persica)
Method in brief: (§1)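 Step 1: sow seeds in sterilized diluvial soil, cover ~1.5 cm. Step 2: spray diluted emulsion onto soil surface at predetermined rate. Step 3: greenhouse, 25–30° C, three weeks. Step 4: grade effect on each plant by earlier criteria.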

barnyard grass [2] = assay: Test Example 4: herbicidal effect by soil treatment (Table 19, symbol H); format: in vivo, barnyard grass (Echinochloa crus-galli)
Method in brief: as §1

barnyard grass [3] = assay: Test Example 5: herbicidal effect by foliage application, plastic box (Table 20, symbol H); format: in vivo, barnyard grass (Echinochloa crus-galli); conditions: foliage application, 3 weeks after application
Method in brief: (§2)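 Foliar spray test: emulsion formulation diluted in water to a set application rate, sprayed onto 14-day-old plants raised in diluvial soil at 25° C to 30° C under glass. Both herbicidal effect and crop effect rated visually three weeks later.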

rice flat sedge = assay: Test Example 3: herbicidal effect by foliage application, Wagner pot (Table 18, symbol E); format: in vivo, rice flat sedge (Cyperus iria)
Method in brief: (§3)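 Plants were sown in alluvial soil held under 0.1–0.5 cm standing water and grown 14 days in a greenhouse at 25–30 °C. An emulsifiable formulation, water-diluted to the set dose, was then sprayed onto the foliage, and effects were scored three weeks later using previously defined criteria.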

lambsquarters [4] = assay: Test Example 5: herbicidal effect by foliage application, plastic box (Table 20, symbol O); format: in vivo, lambsquarters (Chenopodium album); conditions: foliage application, 3 weeks after application
Method in brief: as §2

redroot pigweed = assay: Test Example 4: herbicidal effect by soil treatment (Table 19, symbol N); format: in vivo, redroot pigweed (Amaranthus retroflexus)
Method in brief: as §1

Italian ryegrass [5] = assay: Test Example 5: herbicidal effect by foliage application, plastic box (Table 20, symbol K); format: in vivo, Italian ryegrass (Lolium multiflorum); conditions: foliage application, 3 weeks after application
Method in brief: as §2

green foxtail [6] = assay: Test Example 4: herbicidal effect by soil treatment (Table 19, symbol G); format: in vivo, green foxtail (Setaria viridis)
Method in brief: as §1

blackgrass [7] = assay: Test Example 4: herbicidal effect by soil treatment (Table 19, symbol J); format: in vivo, blackgrass (Alopecurus myosuroides)
Method in brief: as §1

windgrass [8] = assay: Test Example 5: herbicidal effect by foliage application, plastic box (Table 20, symbol L); format: in vivo, windgrass (Apera spica-venti); conditions: foliage application, 3 weeks after application
Method in brief: as §2

blackgrass [9] = assay: Test Example 5: herbicidal effect by foliage application, plastic box (Table 20, symbol J); format: in vivo, blackgrass (Alopecurus myosuroides); conditions: foliage application, 3 weeks after application
Method in brief: as §2

Italian ryegrass [10] = assay: Test Example 4: herbicidal effect by soil treatment (Table 19, symbol K); format: in vivo, Italian ryegrass (Lolium multiflorum)
Method in brief: as §1

velvetleaf [11] = assay: Test Example 5: herbicidal effect by foliage application, plastic box (Table 20, symbol M); format: in vivo, velvetleaf (Abutilon theophrasti); conditions: foliage application, 3 weeks after application
Method in brief: as §2

chickweed = assay: Test Example 4: herbicidal effect by soil treatment (Table 19, symbol P); format: in vivo, common chickweed (Stellaria media)
Method in brief: as §1

green foxtail [12] = assay: Test Example 5: herbicidal effect by foliage application, plastic box (Table 20, symbol G); format: in vivo, green foxtail (Setaria viridis); conditions: foliage application, 3 weeks after application
Method in brief: as §2

wild oat [13] = assay: Test Example 5: herbicidal effect by foliage application, plastic box (Table 20, symbol I); format: in vivo, wild oat (Avena fatua); conditions: foliage application, 3 weeks after application
Method in brief: as §2

lambsquarters [14] = assay: Test Example 4: herbicidal effect by soil treatment (Table 19, symbol O); format: in vivo, lambsquarters (Chenopodium album)
Method in brief: as §1

persian speedwell [15] = assay: Test Example 5: herbicidal effect by foliage application, plastic box (Table 20, symbol R); format: in vivo, Persian speedwell (Veronica persica); conditions: foliage application, 3 weeks after application
Method in brief: as §2

wild oat [16] = assay: Test Example 4: herbicidal effect by soil treatment (Table 19, symbol I); format: in vivo, wild oat (Avena fatua)
Method in brief: as §1

barnyard grass [17] = assay: Test Example 3: herbicidal effect by foliage application, Wagner pot (Table 18, symbol H); format: in vivo, barnyard grass (Echinochloa crus-galli)
Method in brief: as §3

southern crabgrass [18] = assay: Test Example 5: herbicidal effect by foliage application, plastic box (Table 20, symbol F); format: in vivo, southern crabgrass (Digitaria ciliaris); conditions: foliage application, 3 weeks after application
Method in brief: as §2

velvetleaf [19] = assay: Test Example 4: herbicidal effect by soil treatment (Table 19, symbol M); format: in vivo, velvetleaf (Abutilon theophrasti)
Method in brief: as §1

Chinese sprangletop = assay: Test Example 3: herbicidal effect by foliage application, Wagner pot (Table 18, symbol D); format: in vivo, chinese sprangletop (Leptochloa chinensis)
Method in brief: as §3

southern crabgrass [20] = assay: Test Example 4: herbicidal effect by soil treatment (Table 19, symbol F); format: in vivo, southern crabgrass (Digitaria ciliaris)
Method in brief: as §1

windgrass [21] = assay: Test Example 4: herbicidal effect by soil treatment (Table 19, symbol L); format: in vivo, windgrass (Apera spica-venti)
Method in brief: as §1

COc1nn(C)c(=O)c(-c2c(-c3ccsc3)sc3ccccc23)c1O [1-192]
R: persian speedwell, herbicidal effect rating (persian speedwell [1]; AAH 80 g/ha): 0 (Herbicidal rate of 5% or less (almost no effect))
H: barnyard grass, herbicidal effect rating (barnyard grass [2]; AAH 80 g/ha): 0 (Herbicidal rate of 5% or less (almost no effect))
effect on barnyard grass (H) (barnyard grass [3]; 80 g/ha): 0 (Herbicidal rate of 5% or less (almost no effect))
herbicidal effect on E (rice flat sedge), rating 0-5 (rice flat sedge; 80 g/ha): 4 (Herbicidal rate of 70% or more and less than 90%)
effect on lambsquarters (O) (lambsquarters [4]; 80 g/ha): 0 (Herbicidal rate of 5% or less (almost no effect))
N: redroot pigweed, herbicidal effect rating (redroot pigweed; AAH 80 g/ha): 0 (Herbicidal rate of 5% or less (almost no effect))
effect on Italian ryegrass (K) (Italian ryegrass [5]; 80 g/ha): 0 (Herbicidal rate of 5% or less (almost no effect))
G: green foxtail, herbicidal effect rating (green foxtail [6]; AAH 80 g/ha): 0 (Herbicidal rate of 5% or less (almost no effect))
J: blackgrass, herbicidal effect rating (blackgrass [7]; AAH 80 g/ha): 0 (Herbicidal rate of 5% or less (almost no effect))
effect on windgrass (L) (windgrass [8]; 80 g/ha): 0 (Herbicidal rate of 5% or less (almost no effect))
effect on blackgrass (J) (blackgrass [9]; 80 g/ha): 0 (Herbicidal rate of 5% or less (almost no effect))
K: Italian ryegrass, herbicidal effect rating (Italian ryegrass [10]; AAH 80 g/ha): 0 (Herbicidal rate of 5% or less (almost no effect))
effect on velvetleaf (M) (velvetleaf [11]; 80 g/ha): 0 (Herbicidal rate of 5% or less (almost no effect))
P: chickweed, herbicidal effect rating (chickweed; AAH 80 g/ha): 3 (Herbicidal rate of 40% or more and less than 70%)
effect on green foxtail (G) (green foxtail [12]; 80 g/ha): 0 (Herbicidal rate of 5% or less (almost no effect))
effect on wild oat (I) (wild oat [13]; 80 g/ha): 0 (Herbicidal rate of 5% or less (almost no effect))
O: lambsquarters, herbicidal effect rating (lambsquarters [14]; AAH 80 g/ha): 0 (Herbicidal rate of 5% or less (almost no effect))
effect on persian speedwell (R) (persian speedwell [15]; 80 g/ha): 3 (Herbicidal rate of 40% or more and less than 70%)
I: wild oat, herbicidal effect rating (wild oat [16]; AAH 80 g/ha): 0 (Herbicidal rate of 5% or less (almost no effect))
herbicidal effect on H (barnyard grass), rating 0-5 (barnyard grass [17]; 80 g/ha): 1 (Herbicidal rate of 5% or more and less than 20%)
effect on southern crabgrass (F) (southern crabgrass [18]; 80 g/ha): 0 (Herbicidal rate of 5% or less (almost no effect))
M: velvetleaf, herbicidal effect rating (velvetleaf [19]; AAH 80 g/ha): 0 (Herbicidal rate of 5% or less (almost no effect))
herbicidal effect on D (Chinese sprangletop), rating 0-5 (Chinese sprangletop; 80 g/ha): 4 (Herbicidal rate of 70% or more and less than 90%)
F: southern crabgrass, herbicidal effect rating (southern crabgrass [20]; AAH 80 g/ha): 0 (Herbicidal rate of 5% or less (almost no effect))
L: windgrass, herbicidal effect rating (windgrass [21]; AAH 80 g/ha): 0 (Herbicidal rate of 5% or less (almost no effect))

COCCSCc1ccc(-c2sc3ccccc3c2-c2c(O)c(C)nn(C)c2=O)cc1 [1-251]
R: persian speedwell, herbicidal effect rating (persian speedwell [1]; AAH 320 g/ha): 4 (Herbicidal rate of 70% or more and less than 90%)
H: barnyard grass, herbicidal effect rating (barnyard grass [2]; AAH 320 g/ha): 0 (Herbicidal rate of 5% or less (almost no effect))
effect on barnyard grass (H) (barnyard grass [3]; 320 g/ha): 4 (Herbicidal rate of 70% or more and less than 90%)
herbicidal effect on E (rice flat sedge), rating 0-5 (rice flat sedge; 320 g/ha): 3 (Herbicidal rate of 40% or more and less than 70%)
effect on lambsquarters (O) (lambsquarters [4]; 320 g/ha): 4 (Herbicidal rate of 70% or more and less than 90%)
N: redroot pigweed, herbicidal effect rating (redroot pigweed; AAH 320 g/ha): 0 (Herbicidal rate of 5% or less (almost no effect))
effect on Italian ryegrass (K) (Italian ryegrass [5]; 320 g/ha): 4 (Herbicidal rate of 70% or more and less than 90%)
G: green foxtail, herbicidal effect rating (green foxtail [6]; AAH 320 g/ha): 0 (Herbicidal rate of 5% or less (almost no effect))
J: blackgrass, herbicidal effect rating (blackgrass [7]; AAH 320 g/ha): 0 (Herbicidal rate of 5% or less (almost no effect))
effect on windgrass (L) (windgrass [8]; 320 g/ha): 0 (Herbicidal rate of 5% or less (almost no effect))
effect on blackgrass (J) (blackgrass [9]; 320 g/ha): 3 (Herbicidal rate of 40% or more and less than 70%)
K: Italian ryegrass, herbicidal effect rating (Italian ryegrass [10]; AAH 320 g/ha): 0 (Herbicidal rate of 5% or less (almost no effect))
effect on velvetleaf (M) (velvetleaf [11]; 320 g/ha): 5 (Herbicidal rate of 90% or more (almost completely withered))
P: chickweed, herbicidal effect rating (chickweed; AAH 320 g/ha): 0 (Herbicidal rate of 5% or less (almost no effect))
effect on green foxtail (G) (green foxtail [12]; 320 g/ha): 5 (Herbicidal rate of 90% or more (almost completely withered))
effect on wild oat (I) (wild oat [13]; 320 g/ha): 0 (Herbicidal rate of 5% or less (almost no effect))
O: lambsquarters, herbicidal effect rating (lambsquarters [14]; AAH 320 g/ha): 0 (Herbicidal rate of 5% or less (almost no effect))
effect on persian speedwell (R) (persian speedwell [15]; 320 g/ha): 5 (Herbicidal rate of 90% or more (almost completely withered))
I: wild oat, herbicidal effect rating (wild oat [16]; AAH 320 g/ha): 0 (Herbicidal rate of 5% or less (almost no effect))
herbicidal effect on H (barnyard grass), rating 0-5 (barnyard grass [17]; 320 g/ha): 5 (Herbicidal rate of 90% or more (almost completely withered))
effect on southern crabgrass (F) (southern crabgrass [18]; 320 g/ha): 1 (Herbicidal rate of 5% or more and less than 20%)
M: velvetleaf, herbicidal effect rating (velvetleaf [19]; AAH 320 g/ha): 0 (Herbicidal rate of 5% or less (almost no effect))
herbicidal effect on D (Chinese sprangletop), rating 0-5 (Chinese sprangletop; 320 g/ha): 3 (Herbicidal rate of 40% or more and less than 70%)
F: southern crabgrass, herbicidal effect rating (southern crabgrass [20]; AAH 320 g/ha): 0 (Herbicidal rate of 5% or less (almost no effect))
L: windgrass, herbicidal effect rating (windgrass [21]; AAH 320 g/ha): 0 (Herbicidal rate of 5% or less (almost no effect))
